According to patent US20230381142A1, “ANTILEISHMANIAL COMPOUNDS, COMPOSITIONS AND USE THEREOF” (TRUSTEES OF BOSTON UNIVERSITY, priority 2022, published 2023):
≈ marks a conversion by molar mass, not a printed value.

What was measured:
[1] = Property forecast index (PFI = ChromLogD7.4 + aromatic rings); type: physicochemical
[2] = Host THP-1 cell cytotoxicity in the CDIPD high content screen; type: cell-based, human; details: human
In short: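 THP-1 cells differentiated with 0.1 μM PMA for 48 h, then infected with stationary-phase promastigotes (L. major LV39 or L. donovani 1S/Cl2D) at 1:15 parasite-cell ratio. Compounds applied for 72 h at 37° C. Cells formaldehyde-fixed, DAPI-stained, imaged to count amastigotes and host cells.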

[3] = test system: L. major (strain LV39) intracellular amastigotes infecting THP-1 cells; test: High content intracellular amastigote assay in THP-1 cells (Assay Conditions B); type: cell-based, Leishmania major; details: Leishmania major; THP-1 host cells
Method: Assay Conditions B: THP-1 cells (human acute monocytic leukemia cell line—ATCC TIB202) were grown in RPMI supplemented with 10% Fetal Bovine Serum (FBS) and 50 μM 2-mercaptoethanol at 37° C. in 5% CO2. THP-1 were seeded in microwell plates at 5×10^5 cells/mL density and treated with 0.1 μM phorbol myristate acetate (PMA, Sigma) at 37° C. for 48 h for differentiation into adherent, non-dividing macrophages. After activation by PMA, cells were washed and incubated with complete RPMI medium containing stationary phase Leishmania promastigotes (L. major: strain LV39; L. donovani, strain 1S/Cl2D) at a 1:15 parasite-cell ratio. Compounds were added and incubated at 37° C. for 72 h. Cells were then washed with phosphate-buffered saline (PBS), fixed for 30 minutes with 4% formaldehyde, rinsed again with PBS, stained for 2 h with 4′,6′-diamidino-2-phenylindole (DAPI 300 nM) and finally washed with PBS. In a collaborative effort to identify new antileishmanial chemotypes with minimal host cell cytotoxicity, compounds from the Boston University Center for Molecular Discovery (BUCMD) screening collection were assessed in a phenotypic, high content primary screen at the University of California's Center for Discovery and Innovation in Parasitic Diseases (CDIPD) for the ability to inhibit growth of L. donovani intracellular amastigotes infecting THP-1 cells. […] Dose-response testing in L. donovani (both intracellular amastigotes and promastigotes) confirmed concentration-dependent growth inhibition of both morphologies of the parasite at low micromolar EC50 values for both compounds (Table 1).

[4] = test system: L. major promastigotes (strain LV39); test: Promastigote assay, CellTiter-Glo (Assay Conditions F); type: cell-based; details: Leishmania major; read-out: Extracellular promastigote EC50
Method: (§1) Assay Conditions F: Leishmania promastigotes (L. major: strain LV39; L. donovani, strain 1S/Cl2D) were maintained as previously described in PloS Negl Trop Dis (2015) 9(3):e0003588 and Pathogens (2021) 10(5):593) at 28° C. in M199 media supplemented with glutamine, adenosine, folic acid, hemin, HEPES, 10% Fetal Bovine Serum (Sigma-Aldrich, cat. no. F2442) and 1% Penicillin-Streptomycin (Gibco, cat. no. 15140122). For the promastigote assay, we followed the method previously described in PloS Negl Trop Dis (2011) 5(7):e1253. Briefly, promastigotes were incubated with the compounds for 72 h at 27° C., then lysed by adding 50 μL of CellTiter-Glo (Promega) and placed on an orbital shaker for 5 min at room temperature. After lysis, the resulting ATP-bioluminescence was measured using the Analyst HT plate reader (Molecular Devices).

[5] = test system: L. donovani promastigotes (strain 1S/Cl2D); test: as above; type: cell-based; details: Leishmania donovani; read-out: Extracellular promastigote EC50
Method: as §1

[6] = Artificial membrane permeability (AMP); type: in vitro ADME; details: PAMPA, pH 7.4
In short: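 Passive permeation through 1.8% phosphatidylcholine in 1% decane membrane, 50 mM phosphate buffer pH 7.4 on donor and receiver sides. After 45 min pre-shaking, compounds incubated 3 h at room temperature with shaking, in duplicate; donor and receiver solutions quantified by LC/MS.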

[7] = UCSD infection assay, host cell cytotoxicity (CC50); type: cell-based; details: host macrophages infected with L. donovani; cytotoxicity against host macrophages
Whole blood stability = type: in vitro ADME; details: criterion: no % reduction over 120 min
[8] = Mouse microsomal stability; type: in vitro ADME; details: mouse liver microsomes
Method: Mouse microsomal stability assays were performed as described. Test compound (0.5 μM) was incubated with female CD1 mouse (Xenotech) liver microsomes and their action started with addition of excess NADPH (8 mg/mL 50 mM potassium phosphate buffer, pH 7.4). Aliquots (50 μL) of the incubation mixture were removed immediately (at time 0) and at 3, 6, 9, 15, and 30 min and mixed with acetonitrile (100 μL) to stop the reaction. Internal standard was added to all samples, the samples were centrifuged to sediment precipitated protein, and the plates were then sealed prior to UPLC-MS/MS analysis using a Quattro Premier XE (Waters Corporation, USA). XLfit (IDBS, UK) was used to calculate the exponential decay and consequently the rate constant (k) from the ratio of the peak area of test compound to internal standard at each time point. The rate of intrinsic clearance (Cli) of each test compound was then calculated using the equation Cli (mL/min/g liver)=k×V×microsomal protein yield, where V (mL/mg protein) is the incubation volume/mg protein added and microsomal protein yield is taken as 52.5 mg protein/g liver. Verapamil (0.5 μM) was used as a positive control to confirm acceptable assay performance.

[9] = Solubility in Fasted Simulated Intestinal Fluid (FaSSIF); type: physicochemical; details: thermodynamic from solid
Method: Solubility of compounds using ChemiLuminescent Nitrogen Detection (CLND) was measured as described. Solubility of compounds using Charged Aerosol Detection (CAD) was measured as described. Solubility of solid compounds in Fasted Simulated Intestinal Fluid (FaSSIF) was measured as described.

PFI [1] | Papp at 3 h [6] | Whole blood stability (Whole blood stability) | half-life at 0.5 μM ([8]; female, CD1, pH 7.4, read-out: Microsomal stability (mouse) t1/2) | Microsomal stability (mouse) Clint [8] | solubility [9] | SMILES | CC50 at 72 h [2] | EC50 [3] | EC50 [4] | EC50 [5] | CC50 at 72 h [7]
8.4 | 37 ×10⁻⁶ cm/s | – | – | – | – | COc1ccc(N2C(=O)c3[nH]nc(CC(C)C)c3C2c2ccccc2)cc1 (centres unmarked) [Compound 2] | > 20 µM | 1.7 µM | 4.2 µM | 2.4 µM | –
8.4 | 34.5 ×10⁻⁶ cm/s | Pass | > 20 min | Clint < 3.4 mL/min/g | 130 µg/mL (≈ 343 µM) | COc1ccc(N2C(=O)c3[nH]nc(CC(C)C)c3C2c2ccc(F)cc2)cc1 (racemic) [Compound 1, 4-(4-fluorophenyl)-3-isobutyl-5-(4-methoxyphenyl)-4,5-dihydropyrrolo[3,4-c]pyrazol-6(1H)-one] | > 20 µM | 1.3 µM | 4.4 µM | 2 µM | > 20 µM
